Reference: patent publication US5409911A, “Prostaglandin analog for treating osteoporosis” (Merck & Co., Inc., priority 1992, dated 1995)
Where two headings read alike, the source gives them in different places.

Legend:
[1] = system: bone loss due to limb immobilization; experiment: Effects on bone loss due to limb immobilization in the rat (unilateral sciatic neurectomy, femoral ash weight); type: in vivo, rat (Sprague-Dawley male); conditions: s.c. on two consecutive days before neurectomy; femoral ash weight difference, ten days post-neurectomy; ABP 0.5 mg/kg, PGE2/ABP 1.2 mg/kg, PGE2 0.7 mg/kg; n=6
Experimental: ABP, PGE2 /ABP, and PGE2 effects on bone loss due to limb immobilization in the rat
Male Sprague-Dawley rats weighing 270 grams (10-12 wks) were injected subcutaneously on two consecutive days prior to unilateral sciatic neurectomy induced hindlimb immobilization with the following doses: Vehicle (0.0 mg/kg), ABP (0.5mg/kg), PGE2 /ABP (1.2 mg/kg), PGE2 (0.7 mg/kg). Ten days post-neurectomy femora were removed at necropsy, dissected from the musculature, and placed in crucibles for incineration at 700° C. for twenty-four hours. Following incineration, the femoral ash content was weighed to the nearest 0.1 mg and the femoral ash weight differences between the control and immobilized hindlimb were calculated. Data represent mean ±SEM (n=6).

[2] = system: bone resorption; type: in vivo, rat (Sprague-Dawley female); conditions: equimolar weekly i.v. doses
Experimental: Lysylpyridinoline concentration is a measure of the breakdown of bone collagen.
Effect of PGE2 /ABP (IIIa) on bone resorption estimated by urinary excretion of lysypyridinoline in the rat
4 week old Sprague-Dawley female rats were injected intravenously via the tail vein with equimolar weekly doses of ABP (1 mg/kg, n=5), PGE2 /ABP (2.4 mg/kg, n=5), PGE2 (1.4 mg/kg, n=5), or saline (n=4) each. Filtered urine was collected after 12 and 26 days by housing individual rats in metabolic cages and providing them with food and water ad libitum. The overnight collections of urine were centrifuged at 1000×g for 10 minutes to remove any particles and the supernatant fluid was stored at -80° C. until analysis. Lysylpyridinoline (LP) was extracted from duplicate 1 ml aliquots by acid hydrolysis and subsequent low pressure CF-1 chromatography according to the method of Beardsworth et al. (1990). LP was further resolved by high pressure liquid chromatography according to the method of Uebelhart et al. (1990) and quantitated by comparison with an external standard. Urinary creatinine was measured using the picric acid colorimetric assay (Pharmacia Diagnostics Inc., Fairfield, N.J.). Final results were expressed as pmoles LP per μmole creatinine. […]

[3] = long term s.c. administration; cited from earlier work
[4] = cited from earlier work
[5] = cited from earlier work; remark: listed apart in the source
[6] = system: bone formation; conditions: systemic injection; cited from earlier work
[7] = cited from earlier work; remark: listed apart in the source
[8] = administered systemically; cited from earlier work
[9] = 1, 3 and 6 mg of PGE2/Kg/day, cited from earlier work

SMILES | prevention of bone loss accompanying limb immobilization [1] | urinary lysylpyridinoline (LP) level versus vehicle ([2]; 12 days) | urinary lysylpyridinoline (LP) level versus vehicle ([2]; 26 days) | soft tissue weight [3] | side effects after oral dosing [4] | serum alkaline phosphatase levels ([4]; oral) | periosteal and corticoendosteal bone mass ([5]; daily administration) | bone activity ([5]; s.c., 60, 120, and 180 days) | tibial diaphyseal bone mass ([5]; s.c., 60, 120, and 180 days) | bone formation in vivo [6] | serum phosphate levels ([7]; 1 mg of PGE2, rats) | side effects ([7]; s.c., rats, doses of 3 mg/Kg/day or higher) | half-life [8] | hard tissue mass ([9]; secondary spongiosa of proximal tibial metaphysis) | number of trabeculae [9]
NCCCC(O)(P(=O)([O-])[O-])P(=O)(O)O.[Na+].[Na+] [ABP, 4-amino-1-hydroxybutylidene bisphosphonic acid disodium salt] | effective | lower levels of LPs | lower levels of LPs | – | – | – | – | – | – | – | – | – | – | – | –
CCCCC[C@H](O)/C=C/[C@H]1[C@H](O)CC(=O)[C@@H]1C/C=C\CCCC(=O)O [PGE2] | no statistical difference | – | – | soft tissue weight increases in adrenal glands, liver, kidneys, and lungs | loose stools, diarrhea, vomiting, infected sclerae | increased serum alkaline phosphatase levels | increases periosteal and corticoendosteal bone mass and sustains the transient increase in bone mass | elevated bone activity | increased tibial diaphyseal bone mass | stimulated | significant decreases | diarrhea and flushing of the extremities along with weight loss | short half-life | increase in hard tissue mass | increase in the number of trabeculae
